≈ marks a conversion by molar mass, not a printed value.
How the values were obtained:
A-375 = test: Antiproliferative activity against human A375 cells after 72 to 144 hrs by cyquant DNA dye method; format: functional, cell-based
[1] = Tmax in Swiss Webster mouse at 50 mg/kg, po; format: ADME, organism-based; set-up: dose 50 mg/kg, route oral; conditions: in vivo
MCF7 = test: Antiproliferative activity against human MCF7 cells after 72 to 144 hrs by cyquant DNA dye method; format: functional, cell-based
[2] = Tmax in Swiss Webster mouse at 10 mg/kg, po; format: ADME, organism-based; set-up: dose 10 mg/kg, route oral; conditions: in vivo
Mus musculus [3] = test: Apparent volume of distribution with respect to bioavailability in Swiss Webster mouse at 10 mg/kg, iv; format: ADME, organism-based; conditions: in vivo
[4] = Clearance in Swiss Webster mouse at 10 mg/kg, iv; conditions: in vivo
Heat shock protein HSP90 [5] = target: T1, Heat shock protein HSP90 (Homo sapiens, UniProt P07900+P08238); format: cell-based; conditions: au565
[6] = Half life in Swiss Webster mouse at 50 mg/kg, po; format: ADME, organism-based; set-up: dose 50 mg/kg, route oral; conditions: in vivo
[7] = Tmax in Swiss Webster mouse at 25 mg/kg, po; format: ADME, organism-based; set-up: dose 25 mg/kg, route oral; conditions: in vivo
[8] = Half life in Swiss Webster mouse at 25 mg/kg, po; format: ADME, organism-based; set-up: dose 25 mg/kg, route oral; conditions: in vivo
[9] = Solubility at pH 4 to […]; format: physicochemical; conditions: buffer
[10] = Tmax in Swiss Webster mouse at 10 mg/kg, iv; format: ADME, organism-based; set-up: dose 10 mg/kg, route intravenous; conditions: in vivo
LNCaP = test: Antiproliferative activity against human LNCAP cells after 72 to 144 hrs by cyquant DNA dye method; format: functional, cell-based
[11] = AUC (infinity) in Swiss Webster mouse at 25 mg/kg, po; format: ADME, organism-based; set-up: time infinity, dose 25 mg/kg, route oral; conditions: plasma
Heat shock protein HSP90 [12] = target: T1, Heat shock protein HSP90; conditions: au565
Description: Inhibition of Hsp90 in human AU565 cells assessed as pERK degradation after 24 hrs by high content screening

[13] = Cmax in Swiss Webster mouse at 10 mg/kg, iv; format: ADME, organism-based; set-up: dose 10 mg/kg, route intravenous; conditions: in vivo
[14] = Apparent oral clearance in Swiss Webster mouse at 10 mg/kg, po; format: ADME, organism-based; set-up: dose 10 mg/kg, route oral; conditions: in vivo
SK-MEL-5 = test: Antiproliferative activity against human SK-MEL-5 cells after 72 to 144 hrs by cyquant DNA dye method; format: functional, cell-based
K562 = test: Antiproliferative activity against human K562 cells after 72 to 144 hrs by cyquant DNA dye method; format: functional, cell-based
[15] = Apparent volume of distribution with respect to bioavailability in Swiss Webster mouse at 25 mg/kg, po; format: ADME, organism-based; conditions: in vivo, read-out: Vc/F
[16] = Half life in Swiss Webster mouse at 10 mg/kg, iv; format: ADME, organism-based; set-up: dose 10 mg/kg, route intravenous; conditions: in vivo
[17] = Apparent oral clearance in Swiss Webster mouse at 25 mg/kg, po; format: ADME, organism-based; set-up: dose 25 mg/kg, route oral; conditions: in vivo
SW-620 = test: Antiproliferative activity against human SW620 cells after 72 to 144 hrs by cyquant DNA dye method; format: functional, cell-based
[18] = AUC (infinity) in Swiss Webster mouse at 10 mg/kg, po; format: ADME, organism-based; set-up: time infinity, dose 10 mg/kg, route oral; conditions: plasma
[19] = Cmax in Swiss Webster mouse at 50 mg/kg, po; format: ADME, organism-based; set-up: dose 50 mg/kg, route oral; conditions: in vivo
Heat shock protein HSP90 [20] = target: T1, Heat shock protein HSP90; conditions: a-375
Description: Inhibition of Hsp90 in human A375 cells assessed as pS6 degradation after 24 hrs by high content screening

Mus musculus [21] = test: Toxicity in nu/nu mouse assessed as effect on body weight at 5 to 50 mg/kg, po; format: organism-based; set-up: dose 5-50 mg/kg, route oral; conditions: in vivo
[22] = Binding affinity to pig spleen Hsp90 ATPase pocket by Bradford assay; format: tissue-based, Sus scrofa
Mus musculus [23] = test: Toxicity in nu/nu mouse assessed as mortality at 5 to 50 mg/kg, po; format: organism-based; set-up: dose 5-50 mg/kg, route oral; conditions: in vivo
Heat shock protein HSP90 [24] = target: T1, Heat shock protein HSP90; conditions: a-375; remark: listed apart in the source
Description: Inhibition of Hsp90 in human A375 cells assessed as Hsp70 induction after 24 hrs by high content screening

HT-29 [25] = test: Antiproliferative activity against human HT-29 cells after 72 to 144 hrs by cyquant DNA dye method; format: functional, cell-based
HT-29 [26] = test: Antitumor activity against human HT-29 cells xenografted nu/nu mouse assessed as tumor growth delay at 25 mg/kg, po administered 3 times a week for 3 weeks; format: functional
[27] = Apparent volume of distribution with respect to bioavailability in Swiss Webster mouse at 10 mg/kg, po; format: ADME, organism-based; conditions: in vivo, read-out: Vc/F
[28] = Half life in Swiss Webster mouse at 10 mg/kg, po; format: ADME, organism-based; set-up: dose 10 mg/kg, route oral; conditions: in vivo
[29] = AUC (infinity) in Swiss Webster mouse at 10 mg/kg, iv; format: ADME, organism-based; set-up: time infinity, dose 10 mg/kg, route intravenous; conditions: plasma
[30] = Cmax in Swiss Webster mouse at 10 mg/kg, po; format: ADME, organism-based; set-up: dose 10 mg/kg, route oral; conditions: in vivo
MDA-MB-231 = test: Antiproliferative activity against human MDA-MB-231 cells after 72 to 144 hrs by cyquant DNA dye method; format: functional, cell-based
[31] = Apparent oral clearance in Swiss Webster mouse at 50 mg/kg, po; format: ADME, organism-based; set-up: dose 50 mg/kg, route oral; conditions: in vivo
PC-3 = test: Antiproliferative activity against human PC3 cells after 72 to 144 hrs by cyquant DNA dye method; format: functional, cell-based
HT-29 [32] = test: Antitumor activity against human HT-29 cells xenografted nu/nu mouse assessed as median time for tumor to reach end point at 50 mg/kg, po administered 3 times a week for 3 weeks; format: functional
HT-29 [33] = test: Antitumor activity against human HT-29 cells xenografted nu/nu mouse assessed as tumor growth delay at 50 mg/kg, po administered 3 times a week for 3 weeks; format: functional
[34] = Apparent volume of distribution with respect to bioavailability in Swiss Webster mouse at 50 mg/kg, po; format: ADME, organism-based; conditions: in vivo, read-out: Vc/F
NCI-H460 = test: Antiproliferative activity against human NCI-H460 cells after 72 to 144 hrs by cyquant DNA dye method; format: functional, cell-based
[35] = AUC (infinity) in Swiss Webster mouse at 50 mg/kg, po; format: ADME, organism-based; set-up: time infinity, dose 50 mg/kg, route oral; conditions: plasma
[36] = Cmax in Swiss Webster mouse at 25 mg/kg, po; format: ADME, organism-based; set-up: dose 25 mg/kg, route oral; conditions: in vivo
HCT-15 = test: Antiproliferative activity against human HCT15 cells after 72 to 144 hrs by cyquant DNA dye method; format: functional, cell-based
[37] = Oral bioavailability in rat; format: ADME, organism-based; conditions: in vivo
Liver microsomes = test: Metabolic stability in human liver microsomes at 1 uM after 1 hr; format: ADME, Microsome
[38] = Solubility of the compound; format: physicochemical
[39] = Metabolic stability in human liver S9 fraction assessed as drug remaining at 1 uM after 1 hr; format: ADME, subcellular; conditions: read-out: Stability
[40] = Aqueous solubility in phosphate-buffered saline at pH 7.4; format: physicochemical
[41] = Oral bioavailability in mouse; format: ADME, organism-based; conditions: in vivo

CC1(C)CC(=O)c2c(C(F)(F)F)nn(-c3ccc(C(N)=O)c(N[C@H]4CC[C@H](OC(=O)CN)CC4)c3)c2C1.CS(=O)(=O)O
IC50 (A-375): 51 nM
Tmax [1]: 2 h
IC50 (MCF7): 16 nM
Tmax [2]: 1 h
Vc/F (Mus musculus [3]): 7.846 L/kg
clearance [4]: 34.2 mL/min/kg
IC50 (Heat shock protein HSP90 [5]): 5 nM
half-life [6]: 3.3 h
Tmax [7]: 1 h
half-life [8]: 2.9 h
solubility [9]: 1000 µg/mL
Tmax [10]: 4.98 min
IC50 (LNCaP): 31 nM
AUC(0-inf) [11]: 11000 ng·h/mL
IC50 (Heat shock protein HSP90 [12]): 11 nM
Cmax [13]: 4460 ng/mL
CL/F [14]: 42 mL/min/kg
IC50 (SK-MEL-5): 25 nM
IC50 (K562): 23 nM
Vd/F [15]: 9.59 L/kg
half-life [16]: 2.6 h
CL/F [17]: 37.9 mL/min/kg
IC50 (SW-620): 19 nM
AUC(0-inf) [18]: 3970 ng·h/mL
Cmax [19]: 4020 ng/mL
IC50 (Heat shock protein HSP90 [20]): 61 nM
Activity (Mus musculus [21]): Non-toxic
Kd [22]: 41 nM
Activity (Mus musculus [23]): Non-toxic
IC50 (Heat shock protein HSP90 [24]): 13 nM
IC50 (HT-29 [25]): 32 nM
Activity (HT-29 [26]): 14%
Vd/F [27]: 8.93 L/kg
half-life [28]: 2.5 h
AUC(0-inf) [29]: 4870 ng·h/mL
Cmax [30]: 747 ng/mL
IC50 (MDA-MB-231): 38 nM
CL/F [31]: 33.1 mL/min/kg
IC50 (PC-3): 114 nM
Activity (HT-29 [32]): 43.2 days
Activity (HT-29 [33]): 67%
Vd/F [34]: 9.55 L/kg
IC50 (NCI-H460): 215 nM
AUC(0-inf) [35]: 25200 ng·h/mL
Cmax [36]: 2150 ng/mL
IC50 (HCT-15): 190 nM

Cc1cn(-c2ccc(C(N)=O)c(N[C@H]3CC[C@H](O)CC3)c2)c2c1C(=O)CC(C)(C)C2
IC50 (A-375): 9 nM
IC50 (MCF7): 10 nM
IC50 (Heat shock protein HSP90 [5]): 7 nM
IC50 (LNCaP): 4 nM
IC50 (Heat shock protein HSP90 [12]): 16 nM
IC50 (SK-MEL-5): 7 nM
IC50 (K562): 3 nM
IC50 (SW-620): 6 nM
bioavailability [37]: 10%
IC50 (Heat shock protein HSP90 [20]): 7 nM
Kd [22]: 27 nM
IC50 (Heat shock protein HSP90 [24]): 14 nM
IC50 (HT-29 [25]): 7 nM
IC50 (MDA-MB-231): 10 nM
IC50 (PC-3): 14 nM
IC50 (NCI-H460): 248 nM
IC50 (HCT-15): 61 nM

C=CCNC1=C2C[C@@H](C)C[C@H](OC)[C@H](O)[C@@H](C)/C=C(\C)[C@H](OC(N)=O)[C@@H](OC)/C=C\C=C(/C)C(=O)NC(=CC1=O)C2=O [TANESPIMYCIN]
IC50 (A-375): 1290 nM
IC50 (MCF7): 0.3 nM
IC50 (LNCaP): 82 nM
IC50 (SK-MEL-5): 134 nM
IC50 (K562): 126 nM
IC50 (SW-620): 328 nM
Kd [22]: 87 nM
IC50 (HT-29 [25]): 0.1 nM
IC50 (MDA-MB-231): 194 nM
IC50 (PC-3): 9 nM
IC50 (NCI-H460): 255 nM
IC50 (HCT-15): 1490 nM

CC1(C)CC(=O)c2c(C(F)(F)F)nn(-c3ccc(C(N)=O)c(N[C@H]4CC[C@H](O)CC4)c3)c2C1 [SNX-2112]
Stability (Liver microsomes): Stable
IC50 (A-375): 23 nM
IC50 (MCF7): 53 nM
solubility [38]: 170 µM (≈ 79 µg/mL)
IC50 (LNCaP): 3 nM
IC50 (SK-MEL-5): 6 nM
IC50 (K562): 6 nM
remaining at 1 h, 1 µM [39]: 88%
solubility [40]: 6 µM (≈ 2.79 µg/mL)
IC50 (SW-620): 3 nM
Kd [22]: 16 nM
IC50 (HT-29 [25]): 3 nM
IC50 (MDA-MB-231): 6 nM
IC50 (PC-3): 17 nM
bioavailability [41]: 40%
IC50 (NCI-H460): 18 nM
IC50 (HCT-15): 52 nM

COCC(C)Nc1cc(-n2nc(C)c3c2CC(C)(C)CC3=O)ccc1C(N)=O (stereo not drawn)
IC50 (Heat shock protein HSP90 [5]): 115 nM
Kd [22]: 67 nM

CC(C)c1nn(-c2ccc(C(N)=O)c(N[C@H]3CC[C@H](O)CC3)c2)c2c1C(=O)CC(C)(C)C2
IC50 (Heat shock protein HSP90 [5]): 203 nM
Kd [22]: 177 nM

CC1(C)CC(=O)c2c(C(F)F)nn(-c3ccc(C(N)=O)c(NC4CCSCC4)c3)c2C1
IC50 (Heat shock protein HSP90 [5]): 35 nM
Kd [22]: 11 nM

Cc1nn(-c2ccc(C(N)=O)c(NC(C)S(C)(=O)=O)c2)c2c1C(=O)CC(C)(C)C2 (stereo not drawn)
IC50 (Heat shock protein HSP90 [5]): 147 nM
Kd [22]: 14 nM

CSCCNc1cc(-n2nc(C)c3c2CC(C)(C)CC3=O)ccc1C(N)=O
IC50 (Heat shock protein HSP90 [5]): 226 nM
Kd [22]: 63 nM

COc1ccc(Nc2cc(-n3c(C)cc4c3CC(C)(C)CC4=O)ccc2C(N)=O)cc1
IC50 (Heat shock protein HSP90 [5]): 1590 nM
Kd [22]: 690 nM

CC1(C)CC(=O)c2c(C(F)(F)F)nn(-c3ccc(C(N)=O)c(NCCCN4CCCC4=O)c3)c2C1
IC50 (Heat shock protein HSP90 [5]): 264 nM
Kd [22]: 94 nM

Cc1nn(-c2ccc(C(N)=O)c(NC3CC=CC3)c2)c2c1C(=O)CC(C)(C)C2
IC50 (Heat shock protein HSP90 [5]): 111 nM
Kd [22]: 15 nM

Reference: ChEMBL document CHEMBL1158466, “Discovery of novel 2-aminobenzamide inhibitors of heat shock protein 90 as potent, selective and orally active antitumor agents” (J Med Chem, 2009)
